O=C1CCCCCCCCCCC1
solubility (mole fraction)
Conditions | 278.15 K | 283.15 K | 288.15 K | 293.15 K | 298.15 K | 303.15 K | 308.15 K | 313.15 K
in 1,2-dichloroethane | 0.366 | 0.394 | 0.441 | 0.459 | 0.511 | 0.549 | 0.604 | 0.657
in acetone | 0.142 | 0.184 | 0.229 | 0.285 | 0.362 | 0.432 | 0.517 | 0.618
in acetonitrile | 0.0485 | 0.0711 | 0.104 | 0.16 | 0.225 | 0.322 | 0.466 | 0.637
in cyclohexane | – | 0.21 | 0.263 | 0.308 | 0.366 | 0.441 | 0.515 | 0.598
in ethanol | 0.0472 | 0.0701 | 0.0949 | 0.127 | 0.183 | 0.243 | 0.348 | 0.461
in ethyl acetate | 0.195 | 0.235 | 0.286 | 0.345 | 0.407 | 0.477 | 0.553 | 0.615
in isobutanol | 0.0949 | 0.121 | 0.158 | 0.202 | 0.261 | 0.331 | 0.424 | 0.54
in isopropanol | 0.0967 | 0.122 | 0.155 | 0.2 | 0.262 | 0.341 | 0.445 | 0.55
in methanol | 0.0155 | 0.0267 | 0.04 | 0.0679 | 0.108 | 0.166 | 0.272 | 0.399
in n-butanol | 0.0988 | 0.125 | 0.164 | 0.204 | 0.258 | 0.327 | 0.415 | 0.527
in n-propanol | 0.118 | 0.144 | 0.182 | 0.228 | 0.293 | 0.37 | 0.467 | 0.567
in toluene | 0.33 | 0.378 | 0.41 | 0.454 | 0.501 | 0.553 | 0.607 | 0.675

— BigSolDB 2.1
